Tested on: fungi in Onychomycosis and tinea pedis
Experiment: Tolnaftate solution concentration sufficient to kill the fungi
Conditions: used in a penetrating base
From the text: Tolnaftate USP (known by the trade name Tinactin ™) is a white crystalline powder that has been used as a primary agent in anti-fungal preparations. […] Other anti-fungal agents effective in fighting the fungi causing Onychomycosis and tinea pedis and suitable for use in the present invention are: Clotrimazole, Tioconazole, Nystatin, Terconazole, Butoconazole Nitrate, Unecylenic Acid, Clioquinol, Ciclopirox, Olamine, Econazole Nitrate, Triacetin, Miconazole, Flucytosine, and Ketoconazole.

Cc1cccc(N(C)C(=S)Oc2ccc3ccccc3c2)c1 [Tolnaftate]
solution concentration sufficient to kill the fungi: 1%
